# Assay results: patent US20250312493A1, “FLUOROPHORE-LOADED GELATIN-BASED NANOPARTICLES FOR NEAR-INFRARED IMAGING” (The Board of Trustees of the University of Illinois, priority 2022, published 2025)
# Key:
# [1] = system: 4T1 tumor; assay: In vivo NIR fluorescence imaging, tumor to background ratio; set-up: species or system mice
# Method: Animal tumor model: Female immunodeficient mice (J:NU, 2 months old, average body weight 25 g) were purchased from the Jackson Laboratory (Bar Harbor, Maine, USA). Animal study was performed in strict accordance with the recommendations in the Guide for the Care and Use of Laboratory Animals of the National Institutes of Health. Breast cancer xenograft was established by the orthotopic administration of 100 μl 4T1 cell solution (10^6 cells per injection) at the mammary fat pad of the second nipple of the left side of each mouse using a 27G½ needle. Anesthesia was maintained by mask inhalation of 1.5-2.0% isoflurane throughout the procedure.
# In vivo and ex vivo NIR fluorescence (NIRF) imaging: When the tumor area reached 10 mm^2 within 14 days, nine tumor-bearing mice were administered with ICG, ICG-GNP I or ICG-GNP II, i.e., three mice for each probe, […] The mice administered with ICG-GNP II were imaged using a bioinspired imaging sensor developed for NIRF image-guided surgery. At each time point, the fluorescence from the primary tumor and surrounding tissues (background) of mice under 2% isoflurane were recorded at 37° C. as regions of interest using the IVIS. A ratio between the mean fluorescence from the tumor and background was assessed and expressed as a TBR. […] The fluorescence intensity of each organ or tissue was acquired using the IVIS and bioinspired imaging sensor.
# [2] = Fluorescence intensity at various ICG concentrations in PBS (IVIS); format: physicochemical; settings: 0.05 μM-100 μM ICG
# Method: GNP I or GNP II dispersed in 1 ml of ICG in DI-H2O, with a GNP-to-ICG weight ratio of 20, were incubated for 2 hours at 25° C. The resulting suspension was centrifuged (13,000 rpm/5 min) to discard free ICG in the supernatant. The fluorescence intensity of naked ICG (ICG-free), ICG-loaded GNP I (ICG-GNP I) and GNP II (ICG-GNP II) at various ICG concentrations was recorded and quantified using an In Vivo Imaging System (IVIS, Perkin Elmer, Waltham, MA, USA) (ex 740/em 800 nm).
# [3] = Fluorescence intensity of blood after intravenous administration; format: in vivo, healthy nude mice; settings: 24-hour post-administration, equivalent to 2 mg/kg ICG
# Method: Healthy nude mice were administered with either 100 μl PBS solutions of ICG-free or ICG-GNP I (equivalent to 2 mg/kg ICG) intravenously via retro-orbital injection. 100 μl of blood was collected from the lateral tail vein immediately and 24 hours after the administration, transferred to a 96-well plate, and analyzed their fluorescence intensity using the IVIS (n=3).
smiles,measurement,setting,value
"CC1(C)C(/C=C/C=C/C=C/C=C2\N(CCCCS(=O)(=O)O)c3ccc4ccccc4c3C2(C)C)=[N+](CCCCS(=O)(=O)[O-])c2ccc3ccccc3c21 [ICG-free, indocyanine green]",differences in MFI between the tumor and background,[1]; 1 mg/kg dose,no measurable differences
same,TBR (tumor to background ratio),"[1]; during a 24-hour period, 2 mg/kg dose, IVIS",~1.5
same,ICG concentration above which MFI decreases,[2],above 50 μM
same,ICG concentration at which MFI reaches a peak,[2],10 µM
same,fluorescence of blood samples,[3],minimal fluorescence
